The target of test [1] is T1, Tie2 receptor tyrosine kinase (Homo sapiens, UniProt Q02763).
T1 construct: consist of only the intracellular portion C-terminal portion of the respective receptor, within which is found the kinase domain; made in house; host or cells: baculovirus/Sf21 insect cells (or alternative equivalent), used as cleared lysate
Briefly: In vitro receptor tyrosine kinase inhibition assay, Test (a) (ELISA). The following applies: recombinant human Tie2 kinase domain lysate, ATP 5 micromolar (or Km). The format is biochemical. As for the experimental part:
a. In vitro Receptor Tyrosine Kinase Inhibition Assay
To test for inhibition of Tie2 receptor tyrosine kinase, compounds are evaluated in a non-cell based protein kinase assay by their ability to inhibit the protein kinase enzyme phosphorylation of a tyrosine containing polypeptide substrate in an ELISA based microtitre plate assay. In this particular case, the assay was to determine the IC50, for three different recombinant human tyrosine kinases Tie2, KDR and Flt.
To facilitate production of the tyrosine kinases, recombinant receptor genes were produced using standard molecular biology cloning and mutagenesis techniques. These recombinant proteins fragments encoded within these genes consist of only the intracellular portion C-terminal portion of the respective receptor, within which is found the kinase domain. The recombinant genes encoding the kinase domain containing fragments were cloned and expressed in standard baculovirus/Sf21 system (or alternative equivalent).
Lysates were prepared from the host insect cells following protein expression by treatment with ice-cold lysis buffer (20 mM N-2-hydroxyethylpiperizine-N′-2-ethanesulphonic acid (HEPES) pH7.5, 150 mM NaCl, 10% glycerol, 1% Triton X-100, 1.5 mM MgCl2, 1 mM ethylene glycol-bis (β-aminoethyl ether) N′,N′,N′,N′-tetraacetic acid (EGTA), plus protease inhibitors and then cleared by centrifugation. Tie2, KDR and Flt1 lysates were stored in aliquots at −80° C.
Constitutive kinase activity of these recombinant proteins was determined by their ability to phosphorylate a synthetic peptide (made up of a random co-polymer of Glutamic Acid, Alanine and Tyrosine in the ratio of 6:3:1). Specifically, Nunc Maxisorb™ 96-well immunoplates were coated with 100 microlitres of synthetic peptide Sigma P3899 (1 mg/ml stock solution in PBS diluted 1:500 in PBS prior to plate coating) and incubated at 4° C. overnight. Plates were washed in 50 mM HEPES pH 7.4 at room temperature to remove any excess unbound synthetic peptide.
The immobilised phospho-peptide product of the reaction was detected by immunological methods. Firstly, plates were incubated for 4 hours at room temperature with murine monoclonal anti-phosphotyrosin-HRP (Horseradish Peroxidase) conjugated antibodies (4G10 from Upstate Biotechnology UBI 16-105). Following extensive washing with PBS-T, HRP activity in each well of the plate was measured colorimetrically using 22′-Azino-di-[3-ethylbenzthiazoline sulfonate (6)]diammonium salt crystals ABTS (Sigma P4922—prepared as per manufactures instructions) as a substrate incubated for 30-45 minutes to allow colour development, before 100 ul of 1M H2SO4 was added to stop the reaction.
Quantification of colour development and thus enzyme activity was achieved by the measurement of absorbance at 405 nm on a Molecular Devices ThermoMax microplate reader. Kinase inhibition for a given compound was expressed as an IC50 value. This was determined by calculation of the concentration of compound that was required to give 50% inhibition of phosphorylation in this assay. The range of phosphorylation was calculated from the positive (vehicle plus ATP) and negative (vehicle minus ATP) control values.
(In general: An ELISA detects its analyte on a solid surface through an enzyme-linked reagent.)

A further test concerns the target T2, Tie2 receptor (Homo sapiens, UniProt Q02763).
T2 construct: one can use natural cell lines or primary cells which are known to express the receptor of choice; endogenous in cells; host or cells: EA.hy926/B3 cells (HUVEC named as an alternative)
Put plainly: Cellular Tie2 autophosphorylation assay, Test (b). The format is cell-based. To be noted: Ang1 ligand stimulated whole cells (e.g. EA.hy926/B3), immunoprecipitation/western blot; read-out: IC50 (μM) Test (b): Inhibition of autophosphorylation of Tie2 receptor tyrosine kinase. An excerpt:
b. Cellular Tie2 Autophosphorylation Assay
This assay is based on measuring the ability of compounds to inhibit autophosphorylation of the Tie2 receptor which normally leads to the production of “activated” receptor that in turn initiates the particular signal transduction pathways associated with the receptor function.
Autophosphorylation can be achieved by a number of means. It is known that expression of recombinant kinase domains in baculoviral systems can lead to the production of phosphorylated and activated receptor. It is also reported that over expression of receptors in recombinant cell lines can itself lead to receptor autophosphorylation in the absence of the ligand (Heldin C-H. 1995 Cell: 80, 213-223; Blume-J. P, Hunter T. 2001 Nature: 411, 355-65). Furthermore, there are numerous literature examples in which chimaeric receptors have been constructed. In these cases the natural, external cell surface domain of the receptor has been replaced with that of a domain which is known to be readily dimerised via the addition of the appropriate ligand (e.g. TrkA-Tie2/NGF ligand (Marron, M. B., et al., 2000 Journal of Biological Chemistry: 275:39741-39746) or C-fins-Tie-1/CSF-1 ligand (Kontos, C. D., et al., 2002 Molecular and Cellular Biology: 22, 1704-1713). Thus when the chimaeric receptor expressed in a host cell line and the respective ligand is added, this induces autophosphorylation of the chimeric receptor's kinase domain. This approach has the advantage of often allowing a known (and often easily obtained) ligand to be used instead of having to identify and isolate the natural ligand for each receptor of interest.
Naturally if the ligand is available one can use natural cell lines or primary cells which are known to express the receptor of choice and simply stimulate with ligand to achieve ligand induced phosphorylation. The ability of compounds to inhibit autophosphorylation of the Tie2 receptor, which is expressed for example in EA.hy926/B3 cells (supplied by J. McLean/B. Tuchi, Univ. of N. Carolina at Chapel Hill, CB-4100, 300 Bynum Hall, Chapel Hill, N.C. 27599-41000, USA) or primary HUVEC (human umbilical vein endothelial cells—available from various commercial sources), can measured by this assay.
Natural Ang1 ligand can be isolated using standard purification technology from either tumour cell supernatants or alternatively the Ang1 gene can be cloned and expressed recombinantly using stand molecular biology techniques and expression systems. In this case one can either attempt to produce the ligand either in its native state or as recombinant protein which for example may have been genetically engineered to contain additional of purification tags (eg. polyhistidine peptides, antibody Fc domains) to facilitate the process.
Using the ligand stimulation of either EA.hy926/B3 or HUVEC cellular Tie2 receptor as the example, a Ang1 ligand stimulated cellular receptor phosphorylation assay can be constructed which can be used to analyse to determine the potential of compounds to inhibit this process. For example EA.hy926/B3 cells were grown in the appropriate tissue culture media plus 10% foetal calf serum (FCS) for two days in 6 well plates starting with an initial seeding density of 5×10^5 cells/well. On the third day the cells were serum starved for a total of 2 hours by replacing the previous media with media containing only 1% FCS. After 1 hour 40 minutes of serum starvation the media was removed and replace with 1 ml of the test compound dilutions (compound dilutions made in serum starvation media yet keeping the DMSO concentration below 0.8%). After 1.5 hours of serum starvation orthovanidate was added to a final concentration of 0.1 mM for the final 10 minutes of serum starvation. […]
A general note: A western blot detects proteins with antibodies after separation by electrophoresis.

T2 sequence (Q02763 23-1124): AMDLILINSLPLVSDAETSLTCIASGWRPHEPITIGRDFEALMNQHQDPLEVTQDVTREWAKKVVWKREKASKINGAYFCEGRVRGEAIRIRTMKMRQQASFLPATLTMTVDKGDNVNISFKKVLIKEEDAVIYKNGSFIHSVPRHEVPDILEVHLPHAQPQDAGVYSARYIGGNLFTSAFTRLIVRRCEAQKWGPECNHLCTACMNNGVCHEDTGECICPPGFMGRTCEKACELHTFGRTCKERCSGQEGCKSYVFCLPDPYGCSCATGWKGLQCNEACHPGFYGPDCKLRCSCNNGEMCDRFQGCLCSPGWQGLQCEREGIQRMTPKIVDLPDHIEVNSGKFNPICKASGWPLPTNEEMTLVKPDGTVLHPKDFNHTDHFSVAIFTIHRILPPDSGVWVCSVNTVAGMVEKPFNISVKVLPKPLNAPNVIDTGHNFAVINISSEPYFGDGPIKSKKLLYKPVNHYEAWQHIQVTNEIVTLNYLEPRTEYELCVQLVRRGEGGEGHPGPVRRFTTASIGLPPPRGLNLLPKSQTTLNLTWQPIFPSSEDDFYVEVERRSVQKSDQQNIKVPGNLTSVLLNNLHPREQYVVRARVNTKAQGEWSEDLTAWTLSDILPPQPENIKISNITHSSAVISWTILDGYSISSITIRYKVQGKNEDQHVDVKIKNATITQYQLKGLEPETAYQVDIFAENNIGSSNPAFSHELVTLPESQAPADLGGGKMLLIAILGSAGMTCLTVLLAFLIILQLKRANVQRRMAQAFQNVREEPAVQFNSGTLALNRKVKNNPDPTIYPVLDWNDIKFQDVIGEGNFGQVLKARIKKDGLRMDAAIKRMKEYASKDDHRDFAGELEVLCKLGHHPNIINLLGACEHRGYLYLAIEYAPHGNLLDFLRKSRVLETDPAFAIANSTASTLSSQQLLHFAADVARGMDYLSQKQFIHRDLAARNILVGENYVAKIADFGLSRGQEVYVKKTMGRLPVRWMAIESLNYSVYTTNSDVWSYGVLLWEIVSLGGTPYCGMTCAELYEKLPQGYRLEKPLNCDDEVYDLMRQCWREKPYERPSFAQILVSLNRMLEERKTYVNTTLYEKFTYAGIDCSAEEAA
T1 sequence (Q02763 770-1124 limits assumed): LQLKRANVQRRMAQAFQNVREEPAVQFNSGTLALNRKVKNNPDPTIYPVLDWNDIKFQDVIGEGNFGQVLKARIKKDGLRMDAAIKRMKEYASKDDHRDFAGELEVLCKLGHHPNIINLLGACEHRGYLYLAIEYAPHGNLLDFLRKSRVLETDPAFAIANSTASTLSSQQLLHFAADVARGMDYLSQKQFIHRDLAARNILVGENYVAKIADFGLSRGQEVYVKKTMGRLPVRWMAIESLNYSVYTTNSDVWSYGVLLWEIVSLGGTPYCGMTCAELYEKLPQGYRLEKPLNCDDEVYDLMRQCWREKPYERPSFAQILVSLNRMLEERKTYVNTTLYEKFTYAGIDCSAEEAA

The IC50 is the midpoint of a concentration-inhibition curve. For `Cc1ccc(CNC(=O)Nc2cccc(C#Cc3cnc(N)nc3)c2)o1` [Example 6, N-{3-[(2-aminopyrimidin-5-yl)ethynyl]phenyl}-N′-[(5-methyl-2-furyl)methyl]urea], the IC50 in test [1] is 20 µM; at Tie2 receptor it was 1.7 µM.
Consider `Nc1ncc(C#Cc2cccc(NC(=O)NC(CCO)c3ccccc3)c2)cn1` (stereo not drawn) [Example 12, N-{3-[(2-aminopyrimidin-5-yl)ethynyl]phenyl}-N′-(3-hydroxy-1-phenylpropyl)urea], for which the IC50 worked out at 25 µM in test [1] and 1.3 µM at Tie2 receptor.
The corresponding values for `Cc1ccc(CNC(=O)Nc2cccc(C#Cc3cnc(NCCCN4CCCCC4)nc3)c2)o1` [Example 14, N-[(5-methyl-2-furyl)methyl]-N′-[3-({2-[(3-piperidin-1-ylpropyl)amino]pyrimidin-5-yl}ethynyl)phenyl]urea] are 20 µM and 0.38 µM.
For `Nc1ncnc(N)c1C#Cc1cccc(NC(=O)NCc2cccnc2)c1` [Example 45, N-{3-[(4,6-diaminopyrimidin-5-yl)ethynyl]phenyl}-N′-(pyridin-3-ylmethyl)urea], the half-maximal inhibitory concentration (IC50) in test [1] was 3.3 µM; on Tie2 receptor, 0.2 µM.
The corresponding values for `Nc1ncnc(N)c1C#Cc1cccc(NC(=O)NCC2CCCO2)c1` (stereo not drawn) [Example 47, N-{3-[(4,6-diaminopyrimidin-5-yl)ethynyl]phenyl}-N′-(tetrahydrofuran-2-ylmethyl)urea] are 1.5 µM and 1.9 µM.
Turning to `Cc1conc1CNC(=O)Nc1cccc(C#Cc2c(N)ncnc2N)c1` [Example 50, N-{3-[(4,6-diaminopyrimidin-5-yl)ethynyl]phenyl}-N′-[(4-methylisoxazol-3-yl)methyl]urea], the IC50 in test [1] was 9 µM; at Tie2 receptor, 3.6 µM.

Source of the values: patent publication US20100048543A1, “PYRIMIDINE COMPOUNDS HAVING TIES (TEK) INHIBITORY ACTIVITY” (ASTRAZENECA AB, priority 2005, published 2010).
